Columns and labels:
D4 receptor = D4 receptor binding (3H-YM 09151-2 displacement); parameters: species or system African Green monkey; conditions: for D4: Table 2, compounds of U.S. Pat. No. 5,093,333 (Saab), parameter and unit not given; for Ki: Table 1, 0.5 nM 3H-YM 09151-2, COS cells with recombinant receptor
Description: (§1) Pellets of COS cells containing recombinantly produced D2 or D4 receptors from African Green monkey were used for the assays. The sample is homogenized in 100 volumes (w/vol) of 0.05 M Tris HCl buffer at 4° C. and pH 7.4. The sample is then centrifuged at 30,000×g and resuspended and rehomogenized. The sample is then centrifuged as described and the final tissue sample is frozen until use. The tissue is resuspended 1:20 (wt/vol) in 0.05 M Tris HCl buffer containing 100 mM NaCl.
(§2) Incubations are carried out at […] and contain 0.4 ml of tissue sample, 0.5 nM ^3 H-YM 09151-2 and the compound of interest in a total incubation of 1.0 ml. Nonspecific binding is defined as that binding found in the presence of […]; without further additions nonspecific binding is less than 20% of total binding. Binding characteristics of various compounds of the invention for D2 and D4 receptor subtypes are shown in Table 1 for […].

M2 Muscarinic subtype = experiment: M2 muscarinic subtype assay essentially as in U.S. Pat. No. 5,093,333; format: binding
Description: (§3) Various compounds of the invention were also evaluated in M1 and M2 Muscarinic subtype assays essentially as set forth in U.S. Pat. No. 5,093,333.

M1 Muscarinic subtype = experiment: M1 muscarinic subtype assay essentially as in U.S. Pat. No. 5,093,333; format: binding
Description: as §3

D2 receptor = target: T1, D2 receptor (Chlorocebus aethiops, UniProt P52702); experiment: D2 receptor binding (3H-YM 09151-2 displacement); parameters: species or system African Green monkey; conditions: Table 1; 0.5 nM 3H-YM 09151-2, COS cells with recombinant receptor
T1 construct: expressed in transfected cells; host or cells: COS cells
T1 sequence (P52702 whole entry): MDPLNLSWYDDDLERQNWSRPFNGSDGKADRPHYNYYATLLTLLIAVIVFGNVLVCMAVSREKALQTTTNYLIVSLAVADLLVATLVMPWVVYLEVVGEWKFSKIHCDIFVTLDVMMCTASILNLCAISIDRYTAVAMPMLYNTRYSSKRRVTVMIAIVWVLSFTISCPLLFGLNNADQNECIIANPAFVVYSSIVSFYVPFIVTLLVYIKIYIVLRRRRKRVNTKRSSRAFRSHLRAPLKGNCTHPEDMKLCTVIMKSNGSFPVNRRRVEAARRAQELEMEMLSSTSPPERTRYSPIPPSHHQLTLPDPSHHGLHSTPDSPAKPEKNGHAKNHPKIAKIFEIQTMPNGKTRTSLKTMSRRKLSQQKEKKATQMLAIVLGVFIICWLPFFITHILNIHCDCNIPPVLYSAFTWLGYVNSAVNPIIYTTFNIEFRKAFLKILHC
Description: as §1, §2

[1] = Table 2, compounds of U.S. Pat. No. 5,093,333 (Saab), parameter and unit not given

D4 (D4 receptor)	Ki (D4 receptor)	Ki (D2 receptor)	Compound	M2 (M2 Muscarinic subtype; [1])	M1 (M1 Muscarinic subtype; [1])	M2 (M2 Muscarinic subtype; Table 1, parameter not stated)	M1 (M1 Muscarinic subtype; Table 1, parameter not stated)
> 1000			Cc1cc(NCCCN2CCOCC2)nc2ccccc12	2500	1200		
	0.03 µM		c1ccc(N2CCN(CCNC3=Nc4ccccc4CC3)CC2)nc1 [Compound 2, 2-3,4-dihdroquinolyl(2-(4-(2-pyridyl)piperazinyl)ethyl)amine]				
	0.008 µM		Fc1cnc(N2CCN(CCNC3=Nc4ccccc4CC3)CC2)nc1 [Compound 3, 2-3,4-dihydroquinoly(2-(4-(5-fluoropyrimidin-2-yl)piperazinyl)ethyl)amine]			144 nM	128 nM
	0.022 µM	> 0.1 µM	Cc1cccc(N2CCN(CCCNc3ccc4ccccc4n3)CC2)c1C [Compound 21, (3-(4-(2,3-dimethylphenyl)piperazinyl)propyl)2-quinolylamine]				
	0.01 µM	3.3 µM	Cc1cc(NCCCN2CCN(c3ncccn3)CC2)nc2ccccc12 [Compound 22, (4-methyl(2-quinolyl))(3-(4-(pyrimidin-2-yl)piperazinyl)propyl)amine]				
> 1000			c1ccc2nc(NCCCN3CCOCC3)ccc2c1 [Saab Example 2]	11600	2500		
> 1000			Cc1cc(NCCCN2CCN(C)CC2)nc2ccccc12 [Saab Example 3]	2800	600		
> 1000			Cc1cc(NCCCN2CCCC2=O)nc2ccccc12 [Saab Example 7]	20000	1300		

— patent publication US5972945A, “2-aminoalkylaminoquinolines; dopamine receptor subtype specific ligands” (Neurogen Corporation, priority 1998, dated 1999)
